#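 Five compound concentrations were applied to cells in 96-well plates for 48 hours; endpoints were derived by simple linear interpolation of the resulting dose-response curve. GI50 marks 50% less growth.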 The source made the active and inactive calls. No stated cut-off is given here; in the data, active = GI50 up to about 1.1 µM and inactive = higher. Non-standard residues stand in square brackets, D forms with d. Residues, ends and D or L forms follow the SMILES beside them. Ava = NCCCCC(=O)O; Mpa = O=C(O)CCS
# How the values were obtained:
# Experiment in all cases: NCI anticancer screen, dose series, 48 h
# SW-620 = system: SW-620
# M19-MEL = system: M19-MEL
# A549 = system: A549
# UACC-257 = system: UACC-257
# CAKI-1 = system: CAKI-1
# MOLT-4 = system: MOLT-4
# SN12C = system: SN12C
# IGROV-1 = system: IGROV-1
# HOP-62 = system: HOP-62
# NCI-H23 = system: NCI-H23
# U-251 = system: U-251
# SF-268 = system: SF-268
# UO-31 = system: UO-31
# OVCAR-3 = system: OVCAR-3
# HCT-15 = system: HCT-15
# SK-MEL-2 = system: SK-MEL-2
# A498 = system: A498
# SK-MEL-28 = system: SK-MEL-28
# PC-3 = system: PC-3
# NCI-H226 = system: NCI-H226
Structure (SMILES),GI50 (SW-620),GI50 (M19-MEL),GI50 (A549),GI50 (UACC-257),GI50 (CAKI-1),GI50 (MOLT-4),GI50 (SN12C),GI50 (IGROV-1),GI50 (HOP-62),GI50 (NCI-H23),GI50 (U-251),GI50 (SF-268),GI50 (UO-31),GI50 (OVCAR-3),GI50 (HCT-15) [µM],GI50 (SK-MEL-2),GI50 (A498),GI50 (SK-MEL-28),GI50 (PC-3),GI50 (NCI-H226)
COC(=O)/C=C1/CCC(C(=O)OC)N1 (stereo not given),> 100 µM (inactive),> 100 µM (inactive),> 100 µM (inactive),> 100 µM (inactive),> 100 µM (inactive),> 100 µM (inactive),> 100 µM (inactive),> 100 µM (inactive),> 100 µM (inactive),> 100 µM (inactive),> 100 µM (inactive),> 100 µM (inactive),> 100 µM (inactive),> 100 µM (inactive),> 100,> 100 µM (inactive),> 100 µM (inactive),> 100 µM (inactive),–,–
C[C@@H]1[C@@H](c2ccccc2)O[B-](c2ccccc2)(c2ccccc2)[N+]1(C)C,62.7 µM (inactive),–,> 100 µM (inactive),> 100 µM (inactive),48.3 µM (inactive),> 100 µM (inactive),> 100 µM (inactive),96.8 µM (inactive),> 100 µM (inactive),90.6 µM (inactive),> 100 µM (inactive),> 100 µM (inactive),22.7 µM (inactive),70.5 µM (inactive),58.7,> 100 µM (inactive),67.8 µM (inactive),58.3 µM (inactive),22.8 µM (inactive),41 µM (inactive)
COc1cc(/C=C2\CCc3ccccc3C2=O)cc(OC)c1OC,16.6 µM (inactive),15.9 µM (inactive),20.9 µM (inactive),14.3 µM (inactive),16.1 µM (inactive),9.4 µM (inactive),18 µM (inactive),–,21.5 µM (inactive),15.7 µM (inactive),16.1 µM (inactive),16.4 µM (inactive),16.8 µM (inactive),15.8 µM (inactive),17.3,15.8 µM (inactive),–,15.1 µM (inactive),–,18.6 µM (inactive)
COc1ccc(/C(C#N)=C/c2ccc(OC)c(OC)c2)cc1,> 100 µM (inactive),–,> 100 µM (inactive),> 100 µM (inactive),> 100 µM (inactive),> 100 µM (inactive),> 100 µM (inactive),> 100 µM (inactive),> 100 µM (inactive),> 100 µM (inactive),> 100 µM (inactive),> 100 µM (inactive),> 100 µM (inactive),> 100 µM (inactive),37.2,> 100 µM (inactive),> 100 µM (inactive),> 100 µM (inactive),> 100 µM (inactive),> 100 µM (inactive)
CC(NC(=O)CCS)C(=O)NC(C)C(=O)NC(Cc1c[nH]c2ccccc12)C(=O)NC(Cc1c[nH]cn1)C(=O)NC(CO)C(=O)NC(Cc1c[nH]c2ccccc12)C(=O)NCCCCC(=O)NC(C)C(=O)NC(CCC(N)=O)C(=O)NC(CCCCN)C(=O)NC(C)C(=O)NC(CCCNC(=N)N)C(=O)NC(CCCCN)C(N)=O (stereo not given) ([Mpa]AAWHSW[Ava]AQKARK-NH2; configuration not given here),94.4 µM (inactive),–,> 100 µM (inactive),24.2 µM (inactive),44.2 µM (inactive),> 100 µM (inactive),> 100 µM (inactive),> 100 µM (inactive),> 100 µM (inactive),> 100 µM (inactive),43.2 µM (inactive),29.2 µM (inactive),> 100 µM (inactive),> 100 µM (inactive),> 100,> 100 µM (inactive),> 100 µM (inactive),34.7 µM (inactive),> 100 µM (inactive),> 100 µM (inactive)
CC(C)=CCC/C(C)=C/COc1c2ccoc2cc2oc(=O)ccc12 [BERGAMOTTIN],37.8 µM (inactive),–,24.9 µM (inactive),24.7 µM (inactive),44 µM (inactive),15.4 µM (inactive),38.3 µM (inactive),39.5 µM (inactive),43.4 µM (inactive),27.4 µM (inactive),20.6 µM (inactive),54.1 µM (inactive),21.5 µM (inactive),25.4 µM (inactive),30.4,16 µM (inactive),23.1 µM (inactive),59.2 µM (inactive),29.9 µM (inactive),30.1 µM (inactive)
CC(=O)Oc1ccccc1C(=O)Nc1ncc([N+](=O)[O-])s1 [NITAZOXANIDE],33.1 µM (inactive),–,22 µM (inactive),17.2 µM (inactive),26.5 µM (inactive),> 100 µM (inactive),19.8 µM (inactive),16.3 µM (inactive),22.3 µM (inactive),9.73 µM (inactive),19.4 µM (inactive),14.9 µM (inactive),26 µM (inactive),5.71 µM (inactive),19.9,16.3 µM (inactive),56.2 µM (inactive),11.6 µM (inactive),9.53 µM (inactive),8.83 µM (inactive)

# Source: ChEMBL document CHEMBL1201862, “PubChem BioAssay data set” (2004)
